Consider one molecule from US8114400B2, “Aza-bicyclic compounds and their use as stimulators of soluble guanylate cyclase” (Bayer Pharma Aktiengesellschaft, priority 2006, dated 2012).

For the assay, the system named is aorta rings. Nature of the assay: Vasorelaxant effect in vitro (phenylephrine-contracted rabbit aorta rings). Also noted: species or system Rabbits. As to conditions: Oryctolagus cuniculus, contraction induced by phenylephrine, 37° C., 0.1% DMSO, read-out: IC50 (concentration necessary to reduce the level of contraction by 50%). On the procedure:
Rabbits are stunned by a blow to the back of the neck and are exsanguinated. The aorta is removed, freed of adherent tissue, divided into rings 1.5 mm wide and placed singly in 5 ml organ baths with carbogen-gassed Krebs-Henseleit solution of the following composition (in each case mM): NaCl: 119; KCl: 4.8; CaCl2×2H2O: 1; MgSO4×7H2O: 1.4; KH2PO4: 1.2; NaHCO3: 25; glucose: 10, under an initial tension at 37° C. The force of contraction is detected with Statham UC2 cells, amplified and digitized via A/D converters (DAS-1802 HC, Keithley Instruments Munich), and recorded in parallel on chart recorders. A contraction is induced by adding phenylephrine to the bath cumulatively in increasing concentration. After several control cycles, the substance to be investigated is added in each further run in increasing dosage each time, and the level of contraction is compared with the level of contraction achieved in the last preceding run. The concentration necessary to reduce the level of contraction by 50% (IC50) is calculated therefrom. The standard application volume is 5 μl, and the DMSO content in the bath solution corresponds to 0.1%.

With `Nc1nc(N)nc(-c2nn(Cc3ccccc3F)c3nccn23)n1` [Example 1, 6-[1-(2-Fluorobenzyl)-1H-imidazo[2,1-c][1,2,4]triazol-3-yl]-1,3,5-triazine-2,4-diamine], the IC50 was 6.2 µM.
